Source: publication PMC8986778, “Citrullination of glucokinase is linked to autoimmune diabetes” (Nature Communications, 2022)

Legend:
glucokinase = settings: randomized, double-blind and placebo-controlled study; cited from earlier work
Text: As mentioned above, ATP-dependent GK converts glucose to glucose-6-phosphate, the critical step in glucose metabolism. Alternative splicing of the GK gene results in three tissue-specific isoforms, isoform 1 (pancreas) and isoforms 2 and 3 (liver). The only difference among three GK isoforms is in the amino acid sequence of exon 1 in the first fifteen amino acids of human pancreatic glucokinase. Unlike other hexokinases, GK is not regulated by feedback inhibition by glucose-6-phosphate. Therefore, GK can constitutively trigger insulin secretion in pancreatic β-cells under high glucose cond ...

[1] = test system: recombinant human pancreatic glucokinase; assay: Catalytic activity of recombinant human pancreatic glucokinase (G6PDH coupled assay); assay type: biochemical; set-up: catalytic activity: unit not given beside the values; settings: for catalytic activity: source data sheet Fig 5c; for Vmax / Km: steady-state kinetics at 37 °C, Michaelis-Menten fit; for Vmax: glucose 0–50 mM; for Km: substrate glucose 0–50 mM
Protocol: For in vitro citrullination, 0.1U of rabbit peptidylarginine deiminase (PADI2; Sigma–Aldrich) were added to 50 µg of recombinant human pancreatic glucokinase (rhGK; LS-G3456, LSBio) in reaction buffer (0.1 M Tris-HCl, 10 mM CaCl2 and 5 mM DTT) at 37 °C for 2.5 hrs and kept at -80 °C in multiple aliquots to avoid freeze and thaw until used. Minimum 6 µg of rhGK and PAD-treated-rhGK were reduced, alkylated and tryptic digested for LS-MS/MS analysis. Data were collected on a QE-Plus mass spectrometer coupled to a NanoACQUITY UPLC (Waters Inc.). A Waters Symmetry® C18 180 μm × 20 mm trap column and a 1.7-μm, 75 μm × 250 mm nanoACQUITY UPLC column (35 °C) was utilized for the separation. Collected LC–MS/MS data were processed using Proteome Discoverer Software (v. 2.2, Thermo Fisher Scientific) and searched were carried out in MASCOT Search Engine (Matrix Science) using the below parameters; oxidation (M), deamidated (N/Q) and citrullination (R) as the variable modifications and carbamidomethylation (C) as a fixed modification. Mascot results were loaded into Scaffold Q + S 4.11.0 and then Scaffold PTM 3.3.0 was used to re-analyze MS/MS spectra identified as citrulline modified peptides. Calculated Ascore values for citrullinated peptides containing the neutral loss of isocyanic acid (−43 Da)[54] indicate the level of site localization probabilities to assess the level of confidence in each citrullination PTM localization. Scaffold PTM then combines localization probabilities for all peptides containing each identified PTM site to obtain the best estimated probability that a PTM is present at that particular site. Manual MS/MS inspection of the modified peptides were also carried out to ensure correct assignments/localizations of the citrullination sites (detailed MS/MS spectra are presented in Source Data-File 2 spreadsheet).
After in vitro citrullination by PAD as described above, recombinant human pancreatic glucokinase (rhGK; LS-G5486, LSBio) was put on the ice to stop the reaction for 5 min. Then glucokinase activity was measured spectrophotometrically (A340nm) at 37 °C by a glucose 6-phosphate dehydrogenase (G6PDH) coupled assay as described previously. In brief, 1 µg rhGK or PAD-treated rhGK was assayed in a reaction buffer containing 25 mM Hepes (pH7.3), 2 mM MgCl2, 1 mM DTT, 0.5 mM NADP, 2 mM ATP, 0.01%BSA, 20U/ml G6PDH and 25 mM D-( + )-glucose. Relative specific activity of glucokinase was calculated from linear regression of the change in A340nm. To determine the steady-state kinetic properties of both rhGK and PAD-treated rhGK, varying concentrations of D-( + )-glucose (0–50 mM) were used. Vmax and Km were calculated by Michaelis-Menten equation using GraphPad Prism Software.

INS-1E cells [2] = assay: Protein citrullination immunoblot (anti-modified citrulline); assay type: cell-based, rat; settings: IFNγ 100U/ml plus IL-1β 5U/ml, 5 µM YW3-56, 48 hrs
Text: Presence of citrullinated protein was detected by using anti-citrulline (Abcam, ab6464) for immunohistochemistry as described elsewhere, by using anti-peptidyl-citrulline, clone F95 (Millipore, MABN328) for flow cytometry and confocal microscopy and by using anti-modified citrulline detection kit, clone C4 (Millipore, 17-347B) for immunoblot according to manufacturer’s protocol. The specificity and sensitivity of the above commercial antibodies for the detection of protein citrullination were described previously[47],[48] and in our recent reports[9],[51],[52].
For insulin secretion assay, the INS-1E cells, a gift from Prof. Wollheim (CMU, Geneva, Switzerland)[53], were seeded on 6 well plate and cultured with recombinant mouse IFNγ (100 units/mL; R&D Systems) and recombinant human IL-1β (5 units/mL; R&D Systems) in the presence or absence of PAD2/PAD4 inhibitor (5 µM YW3-56; Cayman) for 48 hrs. Cells were washed and starved for 1 hr in low-glucose KREBS buffer (138 mM NaCl, 4.7 mM KCl, 1 mM CaCl2, 1.18 mM KH2PO4, 1.18 mM MgSO4, 5 mM NaHCO3, 25 mM Hepes (pH7.4), 0.1% BSA and 2.5 mM glucose). […] After another 1 hr incubation, supernatants were collected and assayed for insulin by using Rat High Range Insulin ELISA kit (ALPCP) according to manufacturer’s protocol and analyzed using Microsoft excel Software. […]

PAD4 = settings: pan-PAD inhibitor; no reference printed (compound from Cayman); cited from earlier work
Protocol: Proinflammatory cytokines are known to attenuate glucose stimulated insulin secretion (GSIS), mediated by glucokinase, as studied elsewhere[29]–[31]. We utilized a subclonal cell line from the parenteral INS-1 cells, INS-1E, to examine GSIS and how citrullination may alter the glucose sensing/insulin secreting metabolic pathway. We also utilized YW3-56, a pan-PAD inhibitor (IC50: […] and 1–5 µM for PAD2 and PAD4, respectively), in studies of GSIS in INS-1E cells as a means of blocking protein citrullination. First, we confirmed by immunoblot detection of citrulline that IFNγ+ IL-1β cytoki ...

INS-1E cells [3] = assay: Insulin secretion assay; assay type: cell-based, rat
Protocol: For insulin secretion assay, the INS-1E cells, a gift from Prof. Wollheim (CMU, Geneva, Switzerland)[53], were seeded on 6 well plate and cultured with recombinant mouse IFNγ (100 units/mL; R&D Systems) and recombinant human IL-1β (5 units/mL; R&D Systems) in the presence or absence of PAD2/PAD4 inhibitor (5 µM YW3-56; Cayman) for 48 hrs. Cells were washed and starved for 1 hr in low-glucose KREBS buffer (138 mM NaCl, 4.7 mM KCl, 1 mM CaCl2, 1.18 mM KH2PO4, 1.18 mM MgSO4, 5 mM NaHCO3, 25 mM Hepes (pH7.4), 0.1% BSA and 2.5 mM glucose). Assay buffer was then replaced with KREBS buffer containing either varying glucose concentration (2.5, 5, 9 and 16.7 mM), 10 mM sodium pyruvate or 30 mM KCl. After another 1 hr incubation, supernatants were collected and assayed for insulin by using Rat High Range Insulin ELISA kit (ALPCP) according to manufacturer’s protocol and analyzed using Microsoft excel Software. All experiments were performed using INS-1E cells between the 61st and 65th passage.

[4] = 25 mM glucose, 1 µg protein, replicate 1
[5] = 25 mM glucose, 1 µg protein, replicate 2

In the case of CCCO[C@H]1CC[C@H](N(C(=O)Nc2ncc(SCC(=O)O)s2)C2CCCCC2)CC1 [TTP399], the “clinical effect in patients with T1D” value (glucokinase) is given as “lower HbA1C and reduce hypoglycemia without increasing the risk of ketosis”.

For “PAD-treated rhGK: rhGK citrullinated in vitro by rabbit peptidylarginine deiminase (PADI2)”, the “reduction of catalytic activity by citrullination” value ([1]; 25 mM glucose, 1 µg protein, versus native rhGK) was 20%, the catalytic activity [1, 4] was 56.53 and the catalytic activity [1, 5] was 60.82. The Vmax [1] was 119.9 ± 7.7 µmol/mg/min and the Km [1] was 16.2 ± 2.3 mM.

For YW3-56, the “IFNγ+ IL-1β cytokine-induced citrullination levels” value (INS-1E cells [2]) is listed as “reduced”, the IC50 (PAD4) is listed as 1000 to 5000 nM and the “citrullination levels or GSIS, inhibitor alone” value (INS-1E cells [3]; 5 µM YW3-56 without cytokines, 48 hrs) is listed as “did not affect”. For the same compound, the “cytokine-mediated suppression of insulin secretion upon pyruvate stimulation” value (INS-1E cells [3]; 10 mM sodium pyruvate, 5 µM YW3-56 with cytokines 48 h) was “able to correct”, the “IFNγ + IL-1β suppressed GSIS” value (INS-1E cells [3]; 16.7 mM glucose, YW3-56 cocultured with cytokines for 48 h) was “partially correct” and the “insulin secretion to depolarization with KCL” value (INS-1E cells [3]; 30 mM KCl, cytokines in the presence or absence of YW3-56) was “not affected”. For the same compound, the insulin secretion (INS-1E cells [3]; YW3-56 alone (no cytokine), glucose 2.5 (head prints nM), replicate 1) was 20.6698, the insulin secretion (INS-1E cells [3]; YW3-56 alone, KCl, replicate 1) was 216.859 and the insulin secretion (INS-1E cells [3]; YW3-56 alone, KCl, replicate 2) was 173.302. For the same compound, the insulin secretion (INS-1E cells [3]; YW3-56 alone, KCl, replicate 3) was 216.475, the insulin secretion (INS-1E cells [3]; YW3-56 alone, glucose 2.5 (head prints nM), replicate 2) was 24.1975 and the insulin secretion (INS-1E cells [3]; YW3-56 alone, glucose 2.5 (head prints nM), replicate 3) was 21.4049. For the same compound, the insulin secretion (INS-1E cells [3]; YW3-56 alone, glucose 5 (head prints nM), replicate 1) was 75.1459, the insulin secretion (INS-1E cells [3]; YW3-56 alone, glucose 5 (head prints nM), replicate 2) was 84.4819 and the insulin secretion (INS-1E cells [3]; YW3-56 alone, glucose 5 (head prints nM), replicate 3) was 61.4806. For the same compound, the insulin secretion (INS-1E cells [3]; YW3-56 alone, glucose 16.7 (head prints nM), replicate 1) was 227.056, the insulin secretion (INS-1E cells [3]; YW3-56 alone, glucose 16.7 (head prints nM), replicate 2) was 273.99 and the insulin secretion (INS-1E cells [3]; YW3-56 alone, glucose 16.7 (head prints nM), replicate 3) was 236.558. It also gave an insulin secretion (INS-1E cells [3]; YW3-56 alone, pyruvate, replicate 1) of 292.452, an insulin secretion (INS-1E cells [3]; YW3-56 alone, pyruvate, replicate 2) of 273.99 and an insulin secretion (INS-1E cells [3]; YW3-56 alone, pyruvate, replicate 3) of 273.99. For the same compound, the insulin secretion (INS-1E cells [3]; cytokine (IFNγ + IL-1β) + YW3-56 5 µM 48 hrs, 1 hr glucose 2.5 (head prints nM), replicate 1) was 42.5356, the insulin secretion (INS-1E cells [3]; cytokine + YW3-56 48 hrs, KCl, replicate 1) was 91.8746 and the insulin secretion (INS-1E cells [3]; cytokine + YW3-56 48 hrs, KCl, replicate 2) was 82.0356. The insulin secretion (INS-1E cells [3]; cytokine + YW3-56 48 hrs, KCl, replicate 3) was 59.5376, the insulin secretion (INS-1E cells [3]; cytokine + YW3-56 48 hrs, glucose 2.5 (head prints nM), replicate 2) was 26.9388 and the insulin secretion (INS-1E cells [3]; cytokine + YW3-56 48 hrs, glucose 2.5 (head prints nM), replicate 3) was 26.5034. For the same compound, the insulin secretion (INS-1E cells [3]; cytokine + YW3-56 48 hrs, glucose 5 (head prints nM), replicate 1) was 38.7513, the insulin secretion (INS-1E cells [3]; cytokine + YW3-56 48 hrs, glucose 5 (head prints nM), replicate 2) was 47.2935 and the insulin secretion (INS-1E cells [3]; cytokine + YW3-56 48 hrs, glucose 5 (head prints nM), replicate 3) was 37.2188. It also gave an insulin secretion (INS-1E cells [3]; cytokine + YW3-56 48 hrs, glucose 16.7 (head prints nM), replicate 1) of 95.9987, an insulin secretion (INS-1E cells [3]; cytokine + YW3-56 48 hrs, glucose 16.7 (head prints nM), replicate 2) of 101.342 and an insulin secretion (INS-1E cells [3]; cytokine + YW3-56 48 hrs, glucose 16.7 (head prints nM), replicate 3) of 93.7876. The insulin secretion (INS-1E cells [3]; cytokine + YW3-56 48 hrs, pyruvate, replicate 1) was 78.6578, the insulin secretion (INS-1E cells [3]; cytokine + YW3-56 48 hrs, pyruvate, replicate 2) was 90.7306 and the insulin secretion (INS-1E cells [3]; cytokine + YW3-56 48 hrs, pyruvate, replicate 3) was 140.964.

In the case of “rhGK: Recombinant human pancreatic glucokinase”, the catalytic activity [1, 4] is reported as 72.34, the catalytic activity [1, 5] is reported as 76.63 and the Vmax [1] is reported as 115.1 ± 10.5 µmol/mg/min. For the same compound, the Km [1] was 8.48 ± 2.1 mM.
